Data taken from patent US10316049B2, “Tank-binding kinase inhibitor compounds” (Gilead Sciences, Inc., priority 2015, dated 2019).

How the values were obtained:
[1] = target: T1, TBK1 (Homo sapiens, UniProt Q9UHD2); assay: TR-FRET enzymatic activity assay, TBK1; assay type: biochemical; note: full length recombinant TBK1 at 2.5 nM
T1 construct: TBK1 and IKKε were expressed and purified as full length recombinant proteins; made in house
T1 sequence (Q9UHD2 1-729): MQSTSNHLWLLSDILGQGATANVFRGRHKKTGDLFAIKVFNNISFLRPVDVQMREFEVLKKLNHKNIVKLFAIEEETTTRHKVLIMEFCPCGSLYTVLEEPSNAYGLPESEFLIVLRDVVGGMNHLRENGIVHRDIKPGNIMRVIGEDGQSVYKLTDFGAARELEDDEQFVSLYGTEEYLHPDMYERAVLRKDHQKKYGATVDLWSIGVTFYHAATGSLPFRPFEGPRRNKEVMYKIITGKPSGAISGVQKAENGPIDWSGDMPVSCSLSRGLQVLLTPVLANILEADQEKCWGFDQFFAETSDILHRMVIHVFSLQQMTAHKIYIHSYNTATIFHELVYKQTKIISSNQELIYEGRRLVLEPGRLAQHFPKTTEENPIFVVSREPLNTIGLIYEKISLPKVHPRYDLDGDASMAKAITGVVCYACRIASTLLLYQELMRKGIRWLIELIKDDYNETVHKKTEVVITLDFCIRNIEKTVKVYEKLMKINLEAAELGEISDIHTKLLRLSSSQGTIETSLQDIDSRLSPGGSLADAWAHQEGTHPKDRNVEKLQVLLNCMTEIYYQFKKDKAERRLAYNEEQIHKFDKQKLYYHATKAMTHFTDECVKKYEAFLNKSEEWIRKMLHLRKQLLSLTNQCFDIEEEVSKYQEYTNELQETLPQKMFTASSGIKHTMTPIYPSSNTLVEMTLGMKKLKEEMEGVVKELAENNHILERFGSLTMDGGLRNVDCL
How it was run: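 Full-length recombinant enzymes phosphorylated a biotinylated Ser/Thr peptide for 240 min at 25 °C, stopped with EDTA. Phosphopeptide detected by TR-FRET (streptavidin XL665, Eu-cryptate anti-phospho antibody). IC50 from four-parameter fits normalized to 1 μM staurosporine and DMSO controls, as geometric means of at least four determinations.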

[2] = target: T2, IKKε (Homo sapiens, UniProt Q14164); assay: TR-FRET enzymatic activity assay, IKKε; assay type: biochemical; settings: read-out: IKKϵ IC50; note: full length recombinant IKKε at 0.3 nM
T2 construct: TBK1 and IKKε were expressed and purified as full length recombinant proteins; made in house
T2 sequence (Q14164 1-716): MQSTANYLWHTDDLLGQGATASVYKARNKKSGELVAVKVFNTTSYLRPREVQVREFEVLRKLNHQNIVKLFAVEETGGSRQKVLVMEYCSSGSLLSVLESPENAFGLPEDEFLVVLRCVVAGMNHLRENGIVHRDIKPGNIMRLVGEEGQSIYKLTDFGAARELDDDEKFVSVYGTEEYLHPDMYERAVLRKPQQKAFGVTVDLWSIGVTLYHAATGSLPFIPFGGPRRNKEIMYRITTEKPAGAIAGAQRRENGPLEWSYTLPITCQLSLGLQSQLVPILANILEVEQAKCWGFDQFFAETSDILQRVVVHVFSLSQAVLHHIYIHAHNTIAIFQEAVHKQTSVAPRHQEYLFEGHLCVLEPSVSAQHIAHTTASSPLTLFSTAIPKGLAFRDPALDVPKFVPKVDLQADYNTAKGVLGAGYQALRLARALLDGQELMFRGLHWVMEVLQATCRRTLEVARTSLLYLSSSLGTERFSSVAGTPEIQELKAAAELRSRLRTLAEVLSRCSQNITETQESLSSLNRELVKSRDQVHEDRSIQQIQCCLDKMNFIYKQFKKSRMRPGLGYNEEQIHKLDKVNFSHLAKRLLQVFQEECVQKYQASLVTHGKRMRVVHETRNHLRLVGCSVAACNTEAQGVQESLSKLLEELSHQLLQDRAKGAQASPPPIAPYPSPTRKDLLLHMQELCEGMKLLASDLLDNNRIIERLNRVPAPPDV
How it was run: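 Full-length recombinant IKKε phosphorylated a biotinylated Ser/Thr peptide for 240 min at 25 °C; EDTA stop. Phospho-peptide detected by TR-FRET with streptavidin-XL665 (125 nM) and Eu-cryptate anti-phospho antibody. Normalised to staurosporine and DMSO controls; IC50 from four-parameter fit, geometric mean of ≥4 runs.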

IC50 [1] [nM] | IC50 [2] [nM] | Compound
37.3 | 121 | N#CCC(=O)N1CC[C@H](Oc2ccc(-c3ccnc(NC(=O)C4CC4)c3)cc2C#N)[C@H](F)C1 [Example 12, N-(4-(3-cyano-4-(((3R,4S)-1-(2-cyanoacetyl)-3-fluoropiperidin-4-yl)oxy)phenyl)pyridin-2-yl)cyclopropanecarboxamide]
51.4 | 117 | N#Cc1cc(-c2ccnc(NC(=O)[C@@H]3C[C@@H]3c3ccccc3)c2)ccc1O[C@H]1CCN(C(=O)CO)C[C@H]1F (stereo in doubt) [Example 71, (1,2-cis)-N-(4-(3-Cyano-4-(((3R,4S)-3-fluoro-1-(2-hydroxyacetyl)piperidin-4-yl)oxy)phenyl)pyridin-2-yl)-2-phenylcyclopropane-1-carboxamide]
